The record followed here is US10195258B2, “Tape preparation of WT1 peptide cancer vaccine for transdermal administration” (NITTO DENKO CORPORATION, priority 2013, dated 2019).

This experiment concerns antigen-specific cellular immunity (IFN-γ-producing spleen cells). The experiment in a line: Mouse immunization test 1 (tape preparation), ELISPOT. In kind it is in vivo, genetically modified mouse (HLA-A*0201 type MHC). As to conditions: acid added to WT1 peptide tape preparation (Table 1). As for the experimental part:
Mouse immunization test was performed with the tape preparations using a model animal for immunological evaluation. Evaluation of the immunity induction level was performed by the ELISPOT method. Specifically, the hair of the back of the mouse was cut. The mouse was kept until it recovered from the skin damage due to the hair cutting. After that, a sample was applied to the back of the mouse for the predetermined time, and then removed. Then, the mouse was kept for predetermined days and the level of the antigen-specific cellular immunity was evaluated. After predetermined days from the application of the sample, the spleen was isolated and a spleen cell suspension was prepared. Spleen cells (3×10^6 cells/well) and the antigen peptide (100 μM) together with the culturing medium were placed into a well of an ELISPOT plate on which an anti-mouse IFN-γ antibody had been immobilized. The plate was cultured for 20 hours under the condition of 37° C. and 5% CO2. The number of the spots representing IFN-γ-producing cells (spot number/3×10^6 cells) was evaluated by the ELISPOT method.
The amount of administration of the tape preparation was set to 0.7 cm^2 as described above, the number of administrations was (24 hr/week)×once, and extraction of the spleen was carried out 6 days after the administration. The mouse used for the experiment was a genetically modified mouse by which cellular immunity induction caused by HLA-A*0201 type MHC-restricted peptide can be evaluated.
In Example 8, administration was carried out on skin that was injured with a microcutter (MICRO FEATHER No. 7330G, manufactured by Feather Safety Razor Co., Ltd.).
With `CCCCCCCC/C=C\CCCCCCCC(=O)O` [oleic acid], the “Promotion of cellular immunity induction by acid as second cellular immunity induction promoter” value (“Promotion of cellular immunity induction” below) is “particularly effective”.

In the case of `CCCCCCCCCC(=O)O` [decanoic acid], the “Promotion of cellular immunity induction” value was “effective”.

As for `CCCCCCCCCCCC(=O)O` [lauric acid], the “Promotion of cellular immunity induction” value was “particularly effective”.

Regarding `CC(O)C(=O)O` (stereo not drawn) [lactic acid], the “Promotion of cellular immunity induction” value is “particularly effective”.

Consider `CCCCCCCCCCCCCCCCCC(=O)O` [stearic acid], for which the “Promotion of cellular immunity induction” value is “effective”.

With `CCCCCCCCCCCCCCCC(=O)O` [palmitic acid], the “Promotion of cellular immunity induction” value is recorded as “effective”.

On to `CCCCCCCCCCCCCC(=O)O` [myristic acid], for which the “Promotion of cellular immunity induction” value is listed as “particularly effective”.

`CCCCCCCC(=O)O` [octanoic acid]: the “Promotion of cellular immunity induction” value was “effective”.

As to `CC(C)CCCCCCCCCCCCCCC(=O)O` [isostearic acid], the “Promotion of cellular immunity induction” value is recorded as “particularly effective”.
